The source of these data is patent publication US20240287138A1, “CYCLIC PEPTIDES FOR INHIBITING TNF RECEPTOR 1 ACTIVITY” (Merck Sharp & Dohme LLC, priority 2023, published 2024).

Numbered stars: 1 amine (or outer) side, 2 acyl side, 3 side chain; on linkers, the order of the positions; unused ones are H or OH. Bridge positions count the residues as written; N and C are the ends. Square brackets hold non-standard residues; d marks the D form. Peptide text beside a SMILES is read from it. * marks the point of attachment. Trp(7-aza,1-CH2COOH) = N[C@@H](Cc1cn(CC(=O)O)c2ncccc12)C(=O)O; Trp(βS-Me,7-OMe) = COc1cccc2c([C@H](C)[C@H](N)C(=O)O)c[nH]c12; Trp(1-CH2COOH) = N[C@@H](Cc1cn(CC(=O)O)c2ccccc12)C(=O)O; Trp(βS-Me) = C[C@@H](c1c[nH]c2ccccc12)[C@H](N)C(=O)O; Phe(2-F,4-COOH) = N[C@@H](Cc1ccc(C(=O)O)cc1F)C(=O)O; dPro(trans-4-NMe2) = CN(C)[C@@H]1CN[C@@H](C(=O)O)C1; Trp(7-CN) = N#Cc1cccc2c(C[C@H](N)C(=O)O)c[nH]c12; Trp(7-Cl) = N[C@@H](Cc1c[nH]c2c(Cl)cccc12)C(=O)O; Biotin = O=C1N[C@H]2[C@H](CS[C@H]2CCCCC(=O)*)N1; Phe(3-COOH) = N[C@@H](Cc1cccc(C(=O)O)c1)C(=O)O; Phe(4-CONH2) = NC(=O)c1ccc(C[C@H](N)C(=O)O)cc1; Phe(4-COOH) = N[C@@H](Cc1ccc(C(=O)O)cc1)C(=O)O; Trp(7-aza) = N[C@@H](Cc1c[nH]c2ncccc12)C(=O)O; Tyr(3-OMe) = COc1cc(C[C@H](N)C(=O)O)ccc1O; X66 = O=C([C@@H](N[*:1])c1cccc(O)c1)[*:2]; Lys(Me3) = C[N+](C)(C)CCCC[C@H](N)C(=O)O; Pip(5R-OH) = O=C(O)[C@@H]1CC[C@@H](O)CN1; X1 = O=C([C@@H]1CC[C@H](N[*:1])C1)[*:2]; X42 = C[C@@H](CO)N(CC(=O)[*:2])[*:1]; Pip(4-aza) = O=C(O)[C@@H]1CNCCN1; 4Pal = N[C@@H](Cc1ccncc1)C(=O)O; NMeE = CN[C@@H](CCC(=O)O)C(=O)O; Pip = O=C(O)[C@@H]1CCCCN1; αMeS = C[C@](N)(CO)C(=O)O; NMeA = CN[C@@H](C)C(=O)O; Nle = CCCC[C@H](N)C(=O)O; AEA = NCCOCC(=O)O; Sar = CNCC(=O)O

This experiment deals with T1, TNFα-induced NF-κB signal transduction pathway (TNFR1 signaling) in THP-1 cells (Homo sapiens, UniProt P19438).
T1 sequence (P19438 30-455): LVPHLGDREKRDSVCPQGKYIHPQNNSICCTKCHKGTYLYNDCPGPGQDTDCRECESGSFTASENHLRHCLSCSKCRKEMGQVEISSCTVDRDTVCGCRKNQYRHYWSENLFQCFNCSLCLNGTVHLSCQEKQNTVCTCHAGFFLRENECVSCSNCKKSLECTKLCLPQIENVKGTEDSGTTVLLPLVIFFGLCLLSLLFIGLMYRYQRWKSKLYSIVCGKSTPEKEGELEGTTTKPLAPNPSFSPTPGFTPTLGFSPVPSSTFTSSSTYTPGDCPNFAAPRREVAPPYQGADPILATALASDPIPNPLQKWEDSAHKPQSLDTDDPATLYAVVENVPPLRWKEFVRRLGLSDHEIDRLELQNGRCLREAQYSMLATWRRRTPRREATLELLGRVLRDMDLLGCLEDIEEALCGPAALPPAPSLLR
Nature of the experiment: THP-1 Lucia NF-κB reporter cell assay, inhibition of TNFα-induced NF-κB signaling. Type of experiment: cell-based. Conditions: THP-1 NF-κB Lucia reporter cells, 10 ng/mL TNFα, 16-18 h, secreted luciferase; read-out: THP-1 IC50. As for the experimental part: C. Procedure for THP-1 Lucia NF-κB cells
The inhibition of TNFα-induced NF-κB signal transduction pathways was evaluated in THP-1 cells. THP-1 cells harboring NF-κB-inducible Lucia™ reporter gene (InvivoGen, cat. #thp1-nfkb) designed for monitoring NF-κB signal transduction pathway was employed to assess the inhibitory effect macrocyclic peptides on TNFR1 signaling. The cells were cultured in media containing RPMI 1640, 2 mM L-glutamine, 25 mM HEPES, 10% heat-inactivated fetal bovine serum with appropriate selection antibiotics. Assays were performed in media that was devoid of selection antibiotics. For profiling, 125 nL of peptides in DMSO (10 mM) were dispensed into Falcon® 384-well Optilux white/clear flat bottom TC-treated microtest microplate (Corning, cat. #353963) using Echo® 555. […] A suspension of 1 million cells/mL was dispensed at 20 μL/well in a 384-well plate to a density of 20,000 cells/well and pre-incubated with peptides at 37° C. for 1 h. Subsequently, 5 μL of TNF containing media (recombinant human TNFα; R&D Systems USA, cat. #210-TA-005/CF) or TNF-free media (for controls) was added to the wells. The final concentration of TNFα in the assay in 10 ng/mL. After o.n. incubation at 37° C. (16-18 h), 5 μL of supernatant was aspirated and transferred to a 384-well microplate (PerkinElmer, cat. #6007680) for measurement of secreted luciferase activity with 25 μL of QUANTI-Luc™ luminescence assay reagent (InvivoGen, cat. #rep-qlc1) in each well. The luminescence was measured in EnVision® Multimode Plate Reader (PerkinElmer). Dose response curves were analyzed using a 4-parameter logistic model to calculate IC50 values, reported in Table 2, using TIBCO® Spotfire® software employing appropriate Minimum and Maximum controls.
For `CN1CC(=O)N[C@@H](CC(N)=O)C(=O)N[C@@H](Cc2ccc(O)cc2)C(=O)N[C@@H](Cc2c[nH]c3ccccc23)C(=O)N[C@@H](CO)C(=O)N[C@@H](Cc2ccc(O)cc2)C(=O)N[C@@H](Cc2ccc(O)cc2)C(=O)N(C)CC(=O)N[C@@H](Cc2c[nH]c3ccccc23)C(=O)N[C@H](C(=O)NCC(=O)NCCOCC(=O)N[C@@H](CCCCNC(=O)CCCC[C@@H]2SC[C@@H]3NC(=O)N[C@@H]32)C(N)=O)CSCC(=O)N[C@@H](Cc2ccccc2)C(=O)N[C@@H](Cc2ccc(O)cc2)C(=O)N[C@@H](CO)C(=O)N[C@@H](Cc2c[nH]c3ccccc23)C1=O` [SEQ ID NO. 1] ({CH2CO}-FYSW[Sar]NYWSYY[Sar]WCG[AEA]K(Biotin)-NH2; thioether N-14), the IC50 (usually the concentration at which inhibition is half-maximal) came to 227 nM.

As for `CCCC[C@@H]1NC(=O)[C@@H]2CC[C@@H](C2)NC(=O)[C@H]([C@@H](C)c2c[nH]c3c(OC)cccc23)NC(=O)CN(C)C(=O)[C@H](Cc2ccc(O)cc2)NC(=O)[C@H](Cc2ccc(C(=O)O)cc2F)NC(=O)[C@](C)(CO)NC(=O)[C@H](Cc2c[nH]c3c(Cl)cccc23)NC(=O)[C@H](Cc2ccncc2)NC(=O)[C@H](CC(N)=O)NC(=O)[C@H](CCC(=O)O)N(C)C(=O)[C@H](Cc2c[nH]c3ccccc23)NC(=O)[C@@H]2CNCCN2C(=O)[C@H](Cc2ccncc2)NC1=O` [SEQ ID NO. 7] (cyclo([4Pal][Trp(7-Cl)][αMeS][Phe(2-F,4-COOH)]Y[Sar][Trp(βS-Me,7-OMe)][X1][Nle][4Pal][Pip(4-aza)]W[NMeE]N)), the IC50 was 1.6 nM.

For the molecule `CCCC[C@@H]1NC(=O)[C@@H]2CC[C@@H](C2)NC(=O)[C@H]([C@@H](C)c2c[nH]c3c(OC)cccc23)NC(=O)CN(C)C(=O)[C@H](Cc2ccc(C(N)=O)cc2)NC(=O)[C@H](Cc2ccc(C(N)=O)cc2)NC(=O)[C@](C)(CO)NC(=O)[C@H](Cc2c[nH]c3c(C#N)cccc23)NC(=O)[C@H](Cc2ccc(C(=O)O)cc2)NC(=O)[C@H](CC(N)=O)NC(=O)CN([C@@H](C)CO)C(=O)[C@H](Cc2c[nH]c3ncccc23)NC(=O)[C@@H]2CC[C@@H](O)CN2C(=O)[C@H](Cc2ccncc2)NC1=O` [SEQ ID NO. 23] (cyclo([4Pal][Pip(5R-OH)][Trp(7-aza)][X42]N[Phe(4-COOH)][Trp(7-CN)][αMeS][Phe(4-CONH2)][Phe(4-CONH2)][Sar][Trp(βS-Me,7-OMe)][X1][Nle])), the IC50 is 0.8 nM.

On to `CCCC[C@@H]1NC(=O)[C@@H]2CC[C@@H](C2)NC(=O)[C@H]([C@@H](C)c2c[nH]c3c(OC)cccc23)NC(=O)CN(C)C(=O)[C@H](Cc2ccc(O)c(OC)c2)NC(=O)[C@H](Cc2ccc(C(=O)O)cc2)NC(=O)[C@](C)(CO)NC(=O)[C@H](Cc2c[nH]c3c(Cl)cccc23)NC(=O)[C@H](Cc2ccncc2)NC(=O)[C@H](CC(N)=O)NC(=O)[C@H](CCC(=O)O)N(C)C(=O)[C@H](Cc2c[nH]c3ccccc23)NC(=O)[C@@H]2CNCCN2C(=O)[C@H](Cc2ccncc2)NC1=O` [SEQ ID NO. 24] (cyclo([4Pal][Trp(7-Cl)][αMeS][Phe(4-COOH)][Tyr(3-OMe)][Sar][Trp(βS-Me,7-OMe)][X1][Nle][4Pal][Pip(4-aza)]W[NMeE]N)), for which the half-inhibitory concentration (IC50) stood at 0.7 nM.

As to `CCCC[C@@H]1NC(=O)[C@@H]2CC[C@@H](C2)NC(=O)[C@H]([C@@H](C)c2c[nH]c3c(OC)cccc23)NC(=O)CN(C)C(=O)[C@H](Cc2ccc(O)cc2)NC(=O)[C@H](Cc2cccc(C(=O)O)c2)NC(=O)[C@](C)(CO)NC(=O)[C@H](Cc2c[nH]c3c(Cl)cccc23)NC(=O)[C@H](Cc2ccncc2)NC(=O)[C@H](CC(N)=O)NC(=O)[C@H](CCC(=O)O)N(C)C(=O)[C@H](Cc2c[nH]c3ccccc23)NC(=O)[C@@H]2CNCCN2C(=O)[C@H](Cc2ccncc2)NC1=O` [SEQ ID NO. 28] (cyclo([4Pal][Trp(7-Cl)][αMeS][Phe(3-COOH)]Y[Sar][Trp(βS-Me,7-OMe)][X1][Nle][4Pal][Pip(4-aza)]W[NMeE]N)), the IC50 worked out at 1.6 nM.

Consider `CCCC[C@@H]1NC(=O)[C@@H]2CC[C@@H](C2)NC(=O)[C@H]([C@@H](C)c2c[nH]c3c(OC)cccc23)NC(=O)CN(C)C(=O)[C@H](Cc2ccc(C(N)=O)cc2)NC(=O)[C@H](Cc2ccc(C(N)=O)cc2)NC(=O)[C@](C)(CO)NC(=O)[C@H](Cc2c[nH]c3c(C#N)cccc23)NC(=O)[C@H](Cc2ccc(C(=O)O)cc2)NC(=O)[C@H](CC(N)=O)NC(=O)[C@H]2C[C@H](N(C)C)CN2C(=O)[C@H](Cc2cn(CC(=O)O)c3ncccc23)NC(=O)[C@@H]2CC[C@@H](O)CN2C(=O)[C@H](Cc2ccncc2)NC1=O` [SEQ ID NO. 32] (cyclo([4Pal][Pip(5R-OH)][Trp(7-aza,1-CH2COOH)][dPro(trans-4-NMe2)]N[Phe(4-COOH)][Trp(7-CN)][αMeS][Phe(4-CONH2)][Phe(4-CONH2)][Sar][Trp(βS-Me,7-OMe)][X1][Nle])), for which the IC50 is 0.6 nM.

Take `C[C@@H](c1c[nH]c2ccccc12)[C@@H]1NC(=O)[C@H](CO)NC(=O)[C@H](Cc2ccc(O)cc2)NC(=O)[C@H](CCCCN)NC(=O)CSC[C@@H](C(N)=O)NC(=O)[C@H](Cc2c[nH]c3ccccc23)NC(=O)CN(C)C(=O)[C@H](Cc2ccc(O)cc2)NC(=O)[C@H](Cc2ccc(C(=O)O)cc2)NC(=O)[C@](C)(CO)NC(=O)[C@H](Cc2c[nH]c3ccccc23)NC(=O)[C@H](Cc2ccncc2)NC(=O)[C@H](CC(N)=O)NC(=O)[C@H](C)N(C)C1=O` [SEQ ID NO. 36] ({CH2CO}-KYS[Trp(βS-Me)][NMeA]N[4Pal]W[αMeS][Phe(4-COOH)]Y[Sar]WC-NH2; thioether N-14): the IC50 was determined as 2.2 nM.

Regarding `COc1cccc2c([C@H](C)[C@@H]3NC(=O)CN(C)C(=O)[C@H](Cc4ccc(O)cc4)NC(=O)[C@H](Cc4ccc(C(=O)O)cc4)NC(=O)[C@](C)(CO)NC(=O)[C@H](Cc4c[nH]c5c(Cl)cccc45)NC(=O)[C@H](Cc4ccncc4)NC(=O)[C@H](CC(N)=O)NC(=O)[C@H](CCC(=O)O)N(C)C(=O)[C@H](Cc4c[nH]c5ccccc45)NC(=O)[C@@H]4CCCCN4C(=O)[C@H](Cc4ccncc4)NC(=O)[C@H](CCCC[N+](C)(C)C)NC(=O)[C@@H]4CC[C@@H](C4)NC3=O)c[nH]c12` [SEQ ID NO. 47] (cyclo([4Pal][Pip]W[NMeE]N[4Pal][Trp(7-Cl)][αMeS][Phe(4-COOH)]Y[Sar][Trp(βS-Me,7-OMe)][X1][Lys(Me3)])), the IC50 stood at 1.9 nM.

As to `CCCC[C@@H]1NC(=O)CSC[C@@H](C(N)=O)NC(=O)[C@H]([C@@H](C)c2c[nH]c3c(OC)cccc23)NC(=O)CN(C)C(=O)[C@H](c2cccc(O)c2)NC(=O)[C@H](Cc2ccc(C(N)=O)cc2)NC(=O)[C@](C)(CO)NC(=O)[C@H](Cc2c[nH]c3c(Cl)cccc23)NC(=O)[C@H](Cc2ccc(C(=O)O)cc2)NC(=O)[C@H](CC(N)=O)NC(=O)[C@H](CCC(=O)O)N(C)C(=O)[C@H](Cc2cn(CC(=O)O)c3ccccc23)NC(=O)[C@@H]2CNCCN2C(=O)[C@H](Cc2ccncc2)NC1=O` [SEQ ID NO. 52] ({CH2CO}-[Nle][4Pal][Pip(4-aza)][Trp(1-CH2COOH)][NMeE]N[Phe(4-COOH)][Trp(7-Cl)][αMeS][Phe(4-CONH2)][X66][Sar][Trp(βS-Me,7-OMe)]C-NH2; thioether N-14), the IC50 came out at 3.9 nM.
